Patent publication US12433865B2, “Compositions comprising PGI2-receptor agonists and processes for the preparation thereof” (Arena Pharmaceuticals, Inc., priority 2018, dated 2025)

Assay: Release (dissolution) profile of capsules, USP Apparatus 2 (paddle)
Assay type: physicochemical
From the text: USP Apparatus 2 (Paddle Apparatus) is described, for example, in the United States Pharmacopeial Convention, Feb. 1, 2012, Chapter <711> (“Dissolution”), incorporated by reference herein in its entirety. See http://www.usp.org/sites/default/files/usp_pdf/EN/USPNF/revisions/m99470-gc_711.pdf. The assembly from Apparatus 1 is used, except that a paddle formed from a blade and a shaft is used as the stirring element. The shaft is positioned so that its axis is not more than 2 mm from the vertical axis of the vessel at any point and rotates smoothly without significant wobble that could affect the results. The vertical center line of the blade passes through the axis of the shaft so that the bottom of the blade is flush with the bottom of the shaft. A distance of 25±2 mm between the bottom of the blade and the inside bottom of the vessel is maintained during the test. The metallic or suitably inert, rigid blade and shaft comprise a single entity. A suitable two-part detachable design may be used provided the assembly remains firmly engaged during the test. The paddle blade and shaft may be coated with a suitable coating so as to make them inert. The dosage unit is allowed to sink to the bottom of the vessel before rotation of the blade is started. A small, loose piece of nonreactive material, such as not more than a few turns of wire helix, may be attached to dosage units that would otherwise float. Other validated sinker devices may be used.
Unless otherwise specified, the release profiles for capsules were measured using USP Apparatus 2 (paddle).
All release profiles disclosed in Tables 3c-3p were measured with USP Apparatus 2 (paddle) at 50 rpm in 500 mL of aqueous sodium phosphate at a concentration of 0.05 M (pH=6.8). The values in a given table relate to capsules obtained from the same batch. Values shown represent mean values over a number of dissolution tests (“n” in each table) in each case.

O=C(O)COC[C@H]1CC[C@H](COC(=O)N(c2ccccc2)c2ccc(Cl)cc2)CC1 [Compound 1, 2-(((1r,4r)-4-(((4-chlorophenyl)(phenyl)carbamoyloxy)methyl)cyclohexyl)methoxy)acetic acid]
mean value (n = 6) of % of Compound 1 released (Table 3k: size 4 capsule, 0.03 mg Compound 1, Poloxamer 188:food grade GMS 50:50, 360 min): 91.4% | mean value (n = 6) of % of Compound 1 released (Table 3k: size 4 capsule, 0.03 mg Compound 1, Poloxamer 188:food grade GMS 50:50, 480 min): 98.3% | mean value (n = 4) of % of Compound 1 released (Table 3l: size 4 capsule, 0.5 mg Compound 1, Poloxamer 188:food grade GMS 50:50, 30 min): 9.9% | mean value (n = 4) of % of Compound 1 released (Table 3l: size 4 capsule, 0.5 mg Compound 1, Poloxamer 188:food grade GMS 50:50, 60 min): 22.2% | mean value (n = 4) of % of Compound 1 released (Table 3l: size 4 capsule, 0.5 mg Compound 1, Poloxamer 188:food grade GMS 50:50, 120 min): 42.9% | mean value (n = 4) of % of Compound 1 released (Table 3l: size 4 capsule, 0.5 mg Compound 1, Poloxamer 188:food grade GMS 50:50, 180 min): 61.5% | mean value (n = 4) of % of Compound 1 released (Table 3l: size 4 capsule, 0.5 mg Compound 1, Poloxamer 188:food grade GMS 50:50, 240 min): 76.9% | mean value (n = 4) of % of Compound 1 released (Table 3l: size 4 capsule, 0.5 mg Compound 1, Poloxamer 188:food grade GMS 50:50, 360 min): 92.2% | mean value (n = 4) of % of Compound 1 released (Table 3l: size 4 capsule, 0.5 mg Compound 1, Poloxamer 188:food grade GMS 50:50, 480 min): 96.7% | mean value (n = 6) of % of Compound 1 released (Table 3m: size 4 capsule, 0.03 mg Compound 1, Poloxamer 188:food grade GMS 30:70, 60 min): 15.3% | mean value (n = 6) of % of Compound 1 released (Table 3m: size 4 capsule, 0.03 mg Compound 1, Poloxamer 188:food grade GMS 30:70, 120 min): 27.4% | mean value (n = 6) of % of Compound 1 released (Table 3m: size 4 capsule, 0.03 mg Compound 1, Poloxamer 188:food grade GMS 30:70, 180 min): 38.4% | mean value (n = 6) of % of Compound 1 released (Table 3m: size 4 capsule, 0.03 mg Compound 1, Poloxamer 188:food grade GMS 30:70, 240 min): 49.0% | mean value (n = 6) of % of Compound 1 released (Table 3m: size 4 capsule, 0.03 mg Compound 1, Poloxamer 188:food grade GMS 30:70, 360 min): 70.1% | mean value (n = 6) of % of Compound 1 released (Table 3m: size 4 capsule, 0.03 mg Compound 1, Poloxamer 188:food grade GMS 30:70, 480 min): 85.9% | mean value (n = 6) of % of Compound 1 released (Table 3m: size 4 capsule, 0.03 mg Compound 1, Poloxamer 188:food grade GMS 30:70, 600 min): 93.5% | mean value (n = 6) of % of Compound 1 released (Table 3m: size 4 capsule, 0.03 mg Compound 1, Poloxamer 188:food grade GMS 30:70, 720 min): 97.6% | mean value (n = 6) of % of Compound 1 released (Table 3m: size 4 capsule, 0.03 mg Compound 1, Poloxamer 188:food grade GMS 30:70, 840 min): 99.0% | mean value (n = 4) of % of Compound 1 released (Table 3n: size 4 capsule, 0.5 mg Compound 1, Poloxamer 188:food grade GMS 30:70, 30 min): 7.9% | mean value (n = 4) of % of Compound 1 released (Table 3n: size 4 capsule, 0.5 mg Compound 1, Poloxamer 188:food grade GMS 30:70, 60 min): 15.5% | mean value (n = 4) of % of Compound 1 released (Table 3n: size 4 capsule, 0.5 mg Compound 1, Poloxamer 188:food grade GMS 30:70, 120 min): 26.9% | mean value (n = 4) of % of Compound 1 released (Table 3n: size 4 capsule, 0.5 mg Compound 1, Poloxamer 188:food grade GMS 30:70, 180 min): 37.9% | mean value (n = 4) of % of Compound 1 released (Table 3n: size 4 capsule, 0.5 mg Compound 1, Poloxamer 188:food grade GMS 30:70, 240 min): 48.8% | mean value (n = 4) of % of Compound 1 released (Table 3n: size 4 capsule, 0.5 mg Compound 1, Poloxamer 188:food grade GMS 30:70, 360 min): 68.7% | mean value (n = 4) of % of Compound 1 released (Table 3n: size 4 capsule, 0.5 mg Compound 1, Poloxamer 188:food grade GMS 30:70, 480 min): 83.4% | mean value (n = 4) of % of Compound 1 released (Table 3n: size 4 capsule, 0.5 mg Compound 1, Poloxamer 188:food grade GMS 30:70, 600 min): 90.6% | mean value (n = 4) of % of Compound 1 released (Table 3n: size 4 capsule, 0.5 mg Compound 1, Poloxamer 188:food grade GMS 30:70, 720 min): 94.7% | mean value (n = 4) of % of Compound 1 released (Table 3n: size 4 capsule, 0.5 mg Compound 1, Poloxamer 188:food grade GMS 30:70, 735 min): 95.7% | mean value (n = 4) of % of Compound 1 released (Table 3o: size 4 capsule, 0.5 mg Compound 1, Poloxamer 188:food grade GMS 30:70, 30 min): 5.6% | mean value (n = 4) of % of Compound 1 released (Table 3o: size 4 capsule, 0.5 mg Compound 1, Poloxamer 188:food grade GMS 30:70, 60 min): 13.3% | mean value (n = 4) of % of Compound 1 released (Table 3o: size 4 capsule, 0.5 mg Compound 1, Poloxamer 188:food grade GMS 30:70, 120 min): 25.5% | mean value (n = 4) of % of Compound 1 released (Table 3o: size 4 capsule, 0.5 mg Compound 1, Poloxamer 188:food grade GMS 30:70, 180 min): 37.7% | mean value (n = 4) of % of Compound 1 released (Table 3o: size 4 capsule, 0.5 mg Compound 1, Poloxamer 188:food grade GMS 30:70, 240 min): 49.7% | mean value (n = 4) of % of Compound 1 released (Table 3o: size 4 capsule, 0.5 mg Compound 1, Poloxamer 188:food grade GMS 30:70, 360 min): 71.2% | mean value (n = 4) of % of Compound 1 released (Table 3o: size 4 capsule, 0.5 mg Compound 1, Poloxamer 188:food grade GMS 30:70, 480 min): 84.0% | mean value (n = 4) of % of Compound 1 released (Table 3o: size 4 capsule, 0.5 mg Compound 1, Poloxamer 188:food grade GMS 30:70, 600 min): 89.7% | mean value (n = 4) of % of Compound 1 released (Table 3o: size 4 capsule, 0.5 mg Compound 1, Poloxamer 188:food grade GMS 30:70, 720 min): 93.1% | mean value (n = 4) of % of Compound 1 released (Table 3o: size 4 capsule, 0.5 mg Compound 1, Poloxamer 188:food grade GMS 30:70, 735 min): 94.8% | mean value (n = 4) of % of Compound 1 released (Table 3p: size 4 capsule, 0.5 mg Compound 1, Poloxamer 188:food grade GMS 30:70, 30 min): 7.3% | mean value (n = 4) of % of Compound 1 released (Table 3p: size 4 capsule, 0.5 mg Compound 1, Poloxamer 188:food grade GMS 30:70, 60 min): 14.3% | mean value (n = 4) of % of Compound 1 released (Table 3p: size 4 capsule, 0.5 mg Compound 1, Poloxamer 188:food grade GMS 30:70, 120 min): 26.1% | mean value (n = 4) of % of Compound 1 released (Table 3p: size 4 capsule, 0.5 mg Compound 1, Poloxamer 188:food grade GMS 30:70, 180 min): 38.5% | mean value (n = 4) of % of Compound 1 released (Table 3p: size 4 capsule, 0.5 mg Compound 1, Poloxamer 188:food grade GMS 30:70, 240 min): 51.1% | mean value (n = 4) of % of Compound 1 released (Table 3p: size 4 capsule, 0.5 mg Compound 1, Poloxamer 188:food grade GMS 30:70, 360 min): 74.3% | mean value (n = 4) of % of Compound 1 released (Table 3p: size 4 capsule, 0.5 mg Compound 1, Poloxamer 188:food grade GMS 30:70, 480 min): 87.0% | mean value (n = 4) of % of Compound 1 released (Table 3p: size 4 capsule, 0.5 mg Compound 1, Poloxamer 188:food grade GMS 30:70, 600 min): 92.3% | mean value (n = 4) of % of Compound 1 released (Table 3p: size 4 capsule, 0.5 mg Compound 1, Poloxamer 188:food grade GMS 30:70, 720 min): 95.0%
